Results on 2 compounds are retold here after patent US20090263507A1, “BIOLOGICAL MARKERS AND RESPONSE TO TREATMENT FOR PAIN, INFLAMMATION, NEURONAL OR VASCULAR INJURY AND METHODS OF USE” (Warsaw Orthopedic, Inc., priority 2008, published 2009).

One experiment deals with TBI. To be noted: University of Washington trial initiated in 1999, preliminary data; cited from earlier work.
A further experiment deals with stroke. To be noted: intravenous, up to 12 hours following stroke onset, 2589 patients (Muir et al., 2004); cited from earlier work.
The subject of another experiment is brain injury. Nature of the experiment: Loss of cognitive functions (ability to learn a new spatial task) following brain injury. To be noted: single agent alone. Format: in vivo, animals. The source says:
The discovery of a synergistic effect between PEG, a biomembrane sealing agent, and magnesium is highly significant as it can lead to the development of therapeutic formulations with improved efficacy for the treatment of neuronal trauma, inflammatory and painful conditions.

Another experiment has as its system pain. The note with it: Crosby et al., 2000; cited from earlier work.

Some results are limits rather than exact numbers.

In the case of `O=S(=O)([O-])[O-].[Mg+2]` [magnesium sulfate], the “outcome of magnesium sulfate therapy in TBI patients” value in the experiment with TBI was “negative”. The “clinical improvement after stroke” value in the experiment on stroke is listed as “no significant improvement”.

As to `[Mg+2]` [magnesium], the “effect on the loss of cognitive functions following brain injury” value with brain injury was “no effect”. The “duration of analgesic effects” value in the experiment on pain was not above 4 h.
